From the supplement of paper PMC8671470

The compounds below were run on myeloid leukemia patient primary cells Pat.14 (assay: area under dose-response curve (viability, 1 nM-10 uM) (fraction (0-1)); higher = more sensitive). Settings: 72 h.
Procedure: (§1)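 AUC (0–1, higher = more sensitive) of the 5-point dose–response (1 nM–10 µM, 72 h, CellTiter-Glo) in primary AML/CML patient mononuclear cells. 0.030103 is the floor for inactive compounds.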

SMILES | area under dose-response curve
O=C1c2cc([N+](=O)[O-])ccc2-n2c1nc1ccccc1c2=O [GNF-Pf-3777] | 0.071
C=C(C)[C@H]1Cc2c(ccc3c2O[C@@H]2COc4cc(OC)c(OC)cc4[C@@H]2C3=O)O1 [Rotenone] | 0.41
Oc1ccc(Nc2nc(-c3ccc(Cl)cc3)cs2)cc1 [SKI II] | 0.304
CCC(=O)N1CCN(c2ccc(-n3c(=O)ccc4cnc5ccc(-c6cnc7ccccc7c6)cc5c43)cc2C(F)(F)F)CC1 [Torin1] | 0.225

These compounds were tested on myeloid leukemia patient primary cells Pat.15 in the same assay as above. Settings: 72 h.
Procedure: as §1

SMILES | area under dose-response curve
O=C(C1CC1)N1CC[C@@H](C=C2NNC(=O)N2c2ccc(-c3ccc4occc4c3)cc2)C1 | < 0.0301
C[C@H](NC(=O)c1sccc1OCc1ccc(Cl)cc1)c1ccccc1 | < 0.0301
O=C(O)C1=CC(=C(c2ccc(O)c(C(=O)O)c2)c2ccc(O)c(C(=O)O)c2)C=CC1=O [Aurintricarboxylic acid] | < 0.0301
COC(=O)[C@]12CCC(C)(C)C[C@H]1[C@H]1C(=O)C=C3[C@@]4(C)C=C(C#N)C(=O)C(C)(C)[C@@H]4CC[C@@]3(C)[C@]1(C)CC2 [Bardoxolone methyl] | 0.207
Cc1c(-c2ccc(-c3ccccc3F)cc2)nc2ccc(F)cc2c1C(=O)O [Brequinar] | < 0.0301
Nc1nc(Cl)nc2c1ncn2[C@H]1C[C@H](O)[C@@H](CO)O1 [Cladribine] | 0.193
O=C1c2cc([N+](=O)[O-])ccc2-n2c1nc1ccccc1c2=O [GNF-Pf-3777] | 0.0672
C=C(C)[C@H]1Cc2c(ccc3c2O[C@@H]2COc4cc(OC)c(OC)cc4[C@@H]2C3=O)O1 [Rotenone] | 0.465
Oc1ccc(Nc2nc(-c3ccc(Cl)cc3)cs2)cc1 [SKI II] | 0.0495
CCC(=O)N1CCN(c2ccc(-n3c(=O)ccc4cnc5ccc(-c6cnc7ccccc7c6)cc5c43)cc2C(F)(F)F)CC1 [Torin1] | 0.614

What follows are compounds tested on myeloid leukemia patient primary cells Pat.1 in the same assay as above. Settings: 72 h.
Procedure: as §1

SMILES | area under dose-response curve
O=C(C1CC1)N1CC[C@@H](C=C2NNC(=O)N2c2ccc(-c3ccc4occc4c3)cc2)C1 | < 0.0301
C[C@H](NC(=O)c1sccc1OCc1ccc(Cl)cc1)c1ccccc1 | 0.0329
O=C(O)C1=CC(=C(c2ccc(O)c(C(=O)O)c2)c2ccc(O)c(C(=O)O)c2)C=CC1=O [Aurintricarboxylic acid] | < 0.0301
COC(=O)[C@]12CCC(C)(C)C[C@H]1[C@H]1C(=O)C=C3[C@@]4(C)C=C(C#N)C(=O)C(C)(C)[C@@H]4CC[C@@]3(C)[C@]1(C)CC2 [Bardoxolone methyl] | 0.183
Cc1c(-c2ccc(-c3ccccc3F)cc2)nc2ccc(F)cc2c1C(=O)O [Brequinar] | < 0.0301
Nc1nc(Cl)nc2c1ncn2[C@H]1C[C@H](O)[C@@H](CO)O1 [Cladribine] | < 0.0301
C=C(C)[C@H]1Cc2c(ccc3c2O[C@@H]2COc4cc(OC)c(OC)cc4[C@@H]2C3=O)O1 [Rotenone] | 0.112
Oc1ccc(Nc2nc(-c3ccc(Cl)cc3)cs2)cc1 [SKI II] | 0.054
CCC(=O)N1CCN(c2ccc(-n3c(=O)ccc4cnc5ccc(-c6cnc7ccccc7c6)cc5c43)cc2C(F)(F)F)CC1 [Torin1] | 0.457

The compounds below were run on myeloid leukemia patient primary cells Pat.2 in the same assay as above. Settings: 72 h.
Procedure: as §1

SMILES | area under dose-response curve
O=C(C1CC1)N1CC[C@@H](C=C2NNC(=O)N2c2ccc(-c3ccc4occc4c3)cc2)C1 | < 0.0301
C[C@H](NC(=O)c1sccc1OCc1ccc(Cl)cc1)c1ccccc1 | 0.0349
O=C(O)C1=CC(=C(c2ccc(O)c(C(=O)O)c2)c2ccc(O)c(C(=O)O)c2)C=CC1=O [Aurintricarboxylic acid] | < 0.0301
COC(=O)[C@]12CCC(C)(C)C[C@H]1[C@H]1C(=O)C=C3[C@@]4(C)C=C(C#N)C(=O)C(C)(C)[C@@H]4CC[C@@]3(C)[C@]1(C)CC2 [Bardoxolone methyl] | 0.28
Cc1c(-c2ccc(-c3ccccc3F)cc2)nc2ccc(F)cc2c1C(=O)O [Brequinar] | < 0.0301
Nc1nc(Cl)nc2c1ncn2[C@H]1C[C@H](O)[C@@H](CO)O1 [Cladribine] | 0.463
O=C1c2cc([N+](=O)[O-])ccc2-n2c1nc1ccccc1c2=O [GNF-Pf-3777] | 0.0426
Oc1ccc(Nc2nc(-c3ccc(Cl)cc3)cs2)cc1 [SKI II] | 0.0376

These compounds were tested on myeloid leukemia patient primary cells Pat.3 in the same assay as above. Settings: 72 h.
Procedure: as §1

SMILES | area under dose-response curve
O=C(C1CC1)N1CC[C@@H](C=C2NNC(=O)N2c2ccc(-c3ccc4occc4c3)cc2)C1 | < 0.0301
C[C@H](NC(=O)c1sccc1OCc1ccc(Cl)cc1)c1ccccc1 | 0.124
O=C(O)C1=CC(=C(c2ccc(O)c(C(=O)O)c2)c2ccc(O)c(C(=O)O)c2)C=CC1=O [Aurintricarboxylic acid] | 0.0466
COC(=O)[C@]12CCC(C)(C)C[C@H]1[C@H]1C(=O)C=C3[C@@]4(C)C=C(C#N)C(=O)C(C)(C)[C@@H]4CC[C@@]3(C)[C@]1(C)CC2 [Bardoxolone methyl] | 0.618
Cc1c(-c2ccc(-c3ccccc3F)cc2)nc2ccc(F)cc2c1C(=O)O [Brequinar] | 0.588
Nc1nc(Cl)nc2c1ncn2[C@H]1C[C@H](O)[C@@H](CO)O1 [Cladribine] | 0.652
O=C1c2cc([N+](=O)[O-])ccc2-n2c1nc1ccccc1c2=O [GNF-Pf-3777] | 0.265
C=C(C)[C@H]1Cc2c(ccc3c2O[C@@H]2COc4cc(OC)c(OC)cc4[C@@H]2C3=O)O1 [Rotenone] | 0.57
Oc1ccc(Nc2nc(-c3ccc(Cl)cc3)cs2)cc1 [SKI II] | 0.238

What follows are compounds tested on myeloid leukemia patient primary cells Pat.4 in the same assay as above. Settings: 72 h.
Procedure: as §1

SMILES | area under dose-response curve
O=C(C1CC1)N1CC[C@@H](C=C2NNC(=O)N2c2ccc(-c3ccc4occc4c3)cc2)C1 | < 0.0301
C[C@H](NC(=O)c1sccc1OCc1ccc(Cl)cc1)c1ccccc1 | 0.0955
O=C(O)C1=CC(=C(c2ccc(O)c(C(=O)O)c2)c2ccc(O)c(C(=O)O)c2)C=CC1=O [Aurintricarboxylic acid] | < 0.0301
COC(=O)[C@]12CCC(C)(C)C[C@H]1[C@H]1C(=O)C=C3[C@@]4(C)C=C(C#N)C(=O)C(C)(C)[C@@H]4CC[C@@]3(C)[C@]1(C)CC2 [Bardoxolone methyl] | 0.158
Cc1c(-c2ccc(-c3ccccc3F)cc2)nc2ccc(F)cc2c1C(=O)O [Brequinar] | < 0.0301
Nc1nc(Cl)nc2c1ncn2[C@H]1C[C@H](O)[C@@H](CO)O1 [Cladribine] | 0.689
O=C1c2cc([N+](=O)[O-])ccc2-n2c1nc1ccccc1c2=O [GNF-Pf-3777] | 0.14
C=C(C)[C@H]1Cc2c(ccc3c2O[C@@H]2COc4cc(OC)c(OC)cc4[C@@H]2C3=O)O1 [Rotenone] | 0.187
